The values below are quoted from earlier work in patent US8555875B2, “Inhalation devices and related methods for administration of sedative hypnotic compounds” (Map Pharmaceuticals, Inc., priority 2008, dated 2013).

The conditions of data set [1]: in vivo.
For data set [2] the following is noted: in vivo. The source holds these as a separate data set.
Data set [3] concerns melatonin receptor MT1/MT2. Particulars: metabolite MII versus ramelteon.

Consider `CN1CCN(C(=O)OC2c3nccnc3C(=O)N2c2ccc(Cl)cn2)CC1` (single isomer, unassigned) [Eszopiclone, 6-(5-chloro-2-pyridyl)-5[(4-methyl-1-piperazinyl)carbonyloxy]-7-oxo-6,7-di hydro-5H-pyrrolo[3,4-b]pyrazine], for which the “Duration of Action” value in data set [1] is 8 h. For the same compound, the “Half Life” value in data set [2] was 6 h.

On to `O=C1CN=C(c2ccccc2)c2cc([N+](=O)[O-])ccc2N1` [Nitrazepam], for which the “Duration of Action” value in data set [1] was 24 h. Besides, in data set [2], the “Half Life” value was 28 h.

As to `CN1C(=O)C(O)N=C(c2ccccc2Cl)c2cc(Cl)ccc21` (centres unmarked) [Lormetazepam], the “Duration of Action” value in data set [1] is 12 to 18 h. The “Half Life” value in data set [2] was 10 h.

For `Cc1nnc2n1-c1ccc(Cl)cc1C(c1ccccc1)=NC2` [Alprazolam], in data set [1], the “Duration of Action” value was under 6 h. Besides, the “Half Life” value in data set [2] is 9 to 14 h.

Regarding `CN1C(=O)C(O)N=C(c2ccccc2)c2cc(Cl)ccc21` (centres unmarked) [Temazepam], the “Duration of Action” value in data set [1] is 12 to 18 h.

With `Cc1nnc2n1-c1ccc(Cl)cc1C(c1ccccc1Cl)=NC2` [Triazolam], the “Duration of Action” value in data set [1] was under 6 h. For the same compound, in data set [2], the “Half Life” value was 2 to 4 h.

Consider `O=C1CN=C(c2ccccc2Cl)c2cc([N+](=O)[O-])ccc2N1` [Clonazepam], for which the “Duration of Action” value in data set [1] is 24 to 28 h. In addition, the “Half Life” value in data set [2] is 18 to 28 h.

`CCN(CC)CCN1C(=O)CN=C(c2ccccc2F)c2cc(Cl)ccc21` [Flurazepam]: the “Duration of Action” value in data set [1] is 24 to 28 h. Besides, in data set [2], the “Half Life” value was 50 to 100 h.

`CN1C(=O)CN=C(c2ccccc2)c2cc(Cl)ccc21` [Diazepam]: the “Duration of Action” value in data set [1] is 24 to 28 h.

With `CC(O)C(=O)NCCC1CCc2ccc3c(c21)CCO3` (centres unmarked) [MII], the “mean functional activity, times lower potency than ramelteon” value in data set [3] is 21 times.

Regarding `O=C1Nc2ccc(Cl)cc2C(c2ccccc2Cl)=NC1O` (centres unmarked) [Lorazepam], the “Duration of Action” value in data set [1] was 12 to 18 h. For the same compound, the “Half Life” value in data set [2] was 9 to 19 h.

`CNC1=Nc2ccc(Cl)cc2C(c2ccccc2)=[N+]([O-])C1` [Chlordiazepoxide]: the “Half Life” value in data set [2] was 7 to 13 h.

Regarding `Cc1ncc2n1-c1ccc(Cl)cc1C(c1ccccc1F)=NC2` [Midazolam], in data set [1], the “Duration of Action” value was 4 h. In addition, the “Half Life” value in data set [2] is 1.3 to 2.5 h.

Regarding `Cc1ccc(-c2nc3ccc(C)cn3c2CC(=O)N(C)C)cc1` [Zolpidem], the “Duration of Action” value in data set [1] is under 4 h.
